Source: patent publication US10577373B2, “TYK2 inhibitors and uses thereof” (Nimbus Lakshmi, Inc., priority 2017, dated 2020)
Like-named read-outs stand apart in the source and are kept apart here.

Legend:
[1] = test system: GM-CSF induced STAT5 phosphorylation mediated by the JAK2/JAK2 homdimeric complex; assay: GM-CSF Induced pSTAT5 in Human PBMC
Description: Human PBMC are isolated from buffy coat and are stored frozen for assays as needed.

[2] = test system: IL-12 induced STAT4 phophorylation mediated by Tyk2/JAK2 (heterodimeric complex); assay: IL-12 Induced pSTAT4 in Human PBMC; type: cell-based; conditions: 1.7 ng/mL IL-12
Description: The IL-12 Induced pSTAT4 assay evaluates the inhibition of IL-12 induced STAT4 phophorylation mediated by Tyk2/JAK2 (heterodimeric complex).

[3] = Homo sapiens, PBMC, 20 min, read-out: PBMC_GMCSF_pSTAT5 IC50, human PBMC, GM-CSF 5 ng/mL for 20 minutes, pSTAT5

IC50 [1, 3] [nM]	IC50 [2] [nM]	IC50 ([1]; read-out: PBMC_GMCSF_pSTAT5 IC50, human PBMC, GM-CSF 5 ng/mL for 20 minutes, pSTAT5) [nM]	Structure (SMILES)	IC50 ([1]; Homo sapiens, PBMC, 20 min, read-out: PBMC_GMCSF_pSTAT5 IC50) [nM]
> 2500	< 100		CNc1cc(Nc2cc(Cl)cn(-c3ccn(C)n3)c2=O)nc2c(C(=O)NC3CC3)cnn12 [I-310]	
> 12500	< 100		CNc1cc(Nc2cc(Cl)cn(-c3cnn(C)c3)c2=O)nc2c(C(=O)NC3CC3)cnn12 [I-311]	
> 12500	< 100		CNc1cc(Nc2cc(Cl)cn(-c3cnn(C)c3)c2=O)nc2c(C(=O)N[C@H]3C[C@H]3F)cnn12 [I-312]	
> 2500	< 100		CNc1cc(Nc2cc(Cl)cn(-c3cc(C)n(C)n3)c2=O)nc2c(C(=O)NC3CC3)cnn12 [I-314]	
> 12500	< 100		CNc1cc(Nc2cc(Cl)cn(-c3cc(C)n(C)n3)c2=O)nc2c(C(=O)N[C@H]3C[C@H]3F)cnn12 [I-315]	
> 2500	< 100		CNc1cc(Nc2cc(Cl)cn(-c3ccnc(C)n3)c2=O)nc2c(C(=O)N[C@H]3C[C@H]3F)cnn12 [I-317]	
> 2500	< 100		CNc1cc(Nc2cc(Cl)cn(-c3cnc(C(=O)N(C)C)cn3)c2=O)nc2c(C(=O)NC3CC3)cnn12 [I-318]	
> 2500	< 100		CNc1cc(Nc2cc(Cl)cn(-c3cnc(C(=O)N(C)C)cn3)c2=O)nc2c(C(=O)N[C@H]3C[C@H]3F)cnn12 [I-319]	
> 2500	< 100		[2H]C([2H])([2H])Oc1ncccc1Nc1cc(NC)n2ncc(C(=O)N[C@H]3C[C@H](O)C3)c2n1 [I-321, N-((1r,3r)-3-hydroxycyclobutyl)-5-((2-(methoxy-d3)pyridin-3-yl)amino)-7-(methylamino)pyrazolo[1,5-a]pyrimidine-3-carboxamide]	
> 2500	< 100		CNc1cc(Nc2cc(Cl)cn(-c3ncc(C)s3)c2=O)nc2c(C(=O)N[C@H]3C[C@H]3F)cnn12 [I-323]	
> 50000	< 100		CNc1cc(Nc2cc(Cl)cn(-c3cnn(C4CC4)c3C)c2=O)nc2c(C(=O)N[C@H]3C[C@H]3F)cnn12 [I-326]	
> 2500	< 100		CNc1cc(Nc2cccn(C3CCOCC3)c2=O)nc2c(C(=O)NC3CC3)cnn12 [I-329]	
> 2500	< 100		CNc1cc(Nc2cccn(C3CCOCC3)c2=O)nc2c(C(=O)N[C@H]3C[C@H]3F)cnn12 [I-330]	
> 12500	< 100		CNc1cc(Nc2cc(Cl)cn(-c3ccn(C4CC4)n3)c2=O)nc2c(C(=O)NC3CC3)cnn12 [I-331]	
> 2500	< 100		CNc1cc(Nc2cc(Cl)cn(-c3ccn(C4CC4)n3)c2=O)nc2c(C(=O)N[C@H]3C[C@H]3F)cnn12 [I-332]	
> 12500	< 100		CNc1cc(Nc2cc(Cl)cn(-c3ccc(C4CC4)nn3)c2=O)nc2c(C(=O)NC3CC3)cnn12 [I-333]	
> 50000	< 100		CNc1cc(Nc2cc(Cl)cn(-c3ccc(C4CC4)nn3)c2=O)nc2c(C(=O)N[C@H]3C[C@H]3F)cnn12 [I-334]	
> 12500	< 100		CNc1cc(Nc2cccn(-c3cc(C)nn3C)c2=O)nc2c(C(=O)NC3CCC3)cnn12 [I-342]	
> 12500	< 100		CNc1cc(Nc2cccn([C@H]3CC[C@H](OC)CC3)c2=O)nc2c(C(=O)NC3CC3)cnn12 [I-343]	
> 12500	< 100		CNc1cc(Nc2cccn([C@H]3CC[C@H](OC)CC3)c2=O)nc2c(C(=O)N[C@H]3C[C@H]3F)cnn12 [I-344]	
> 50000	< 100		CNc1cc(Nc2cccn([C@H]3CC[C@H](OC)CC3)c2=O)nc2c(C(=O)NC3CCC3)cnn12 [I-345]	
> 2500	< 100		CNc1cc(Nc2cccnc2OC)nc2c(C(=O)NCC(C)(C)CO)cnn12 [I-346]	
> 50000	< 100		[2H]C([2H])([2H])Oc1ncccc1Nc1cc(NC)n2ncc(C(=O)NCC(C)(C)CO)c2n1 [I-347]	
> 50000	< 100		CNc1cc(Nc2cccnc2OC2CC2)nc2c(C(=O)NCC(C)(C)CO)cnn12 [I-350]	
> 50000	< 100		CNc1cc(Nc2cccn([C@H]3CCCOC3)c2=O)nc2c(C(=O)NC3CC3)cnn12 [I-352]	
> 2500	< 100		CNc1cc(Nc2cccn([C@H]3CCCOC3)c2=O)nc2c(C(=O)NC3CCC3)cnn12 [I-354]	
> 2500	< 100		CNc1cc(Nc2cccn([C@H]3CC[C@@H](OC)CC3)c2=O)nc2c(C(=O)N[C@H]3C[C@H]3F)cnn12 [I-357]	
> 12500	100 to 500		CNc1cc(Nc2cccn([C@H]3CC[C@@](C)(OC)CC3)c2=O)nc2c(C(=O)NC3CC3)cnn12 [I-359]	

IC50 [1, 3] [nM]	IC50 [2] [nM]	IC50 ([1]; read-out: PBMC_GMCSF_pSTAT5 IC50, human PBMC, GM-CSF 5 ng/mL for 20 minutes, pSTAT5) [nM]	Structure (SMILES)	IC50 ([1]; Homo sapiens, PBMC, 20 min, read-out: PBMC_GMCSF_pSTAT5 IC50) [nM]
> 50000	< 100		CNc1cc(Nc2cccn([C@H]3CC[C@@](C)(OC)CC3)c2=O)nc2c(C(=O)N[C@H]3C[C@H]3F)cnn12 [I-360]	
> 50000	< 100		CNc1cc(Nc2cccn([C@H]3CC[C@](C)(OC)CC3)c2=O)nc2c(C(=O)N[C@H]3C[C@H]3F)cnn12 [I-362]	
> 50000	< 100		CNc1cc(Nc2cccn(CC3CCCCO3)c2=O)nc2c(C(=O)N[C@H]3C[C@H]3F)cnn12 (stereo partly shown) [I-365]	
> 12500	< 100		CNc1cc(Nc2cccn(-c3nc(C)co3)c2=O)nc2c(C(=O)NC3CC3)cnn12 [I-368]	
> 50000	< 100		CNc1cc(Nc2cccn(-c3nc(C)co3)c2=O)nc2c(C(=O)N[C@H]3C[C@H]3F)cnn12 [I-369]	
> 50000	< 100		[2H]C([2H])([2H])Oc1ncccc1Nc1cc(NC)n2ncc(C(=O)N[C@H]3CC[C@@H]3O)c2n1 [I-373]	
> 12500	< 100		CNc1cc(Nc2cc(F)cn(-c3ccn(C)n3)c2=O)nc2c(C(=O)NC3CC3)cnn12 [I-378]	
> 2500	< 100		CNc1cc(Nc2cc(F)cn(-c3ccn(C)n3)c2=O)nc2c(C(=O)N[C@H]3C[C@H]3F)cnn12 [I-379]	
> 12500	< 100		CNc1cc(Nc2cc(F)cn(-c3cnn(C)c3)c2=O)nc2c(C(=O)NC3CC3)cnn12 [I-380]	
> 12500	< 100		CNc1cc(Nc2cc(F)cn(-c3cnn(C)c3)c2=O)nc2c(C(=O)N[C@H]3C[C@H]3F)cnn12 [I-381]	
> 300	< 100		CNc1cc(Nc2cc(F)cn(-c3cc(C)n(C)n3)c2=O)nc2c(C(=O)NC3CC3)cnn12 [I-384]	
> 2500	< 100		CNc1cc(Nc2cc(F)cn(-c3cc(C)n(C)n3)c2=O)nc2c(C(=O)N[C@H]3C[C@H]3F)cnn12 [I-385]	
> 50000	< 100		CNc1cc(Nc2cccn(-c3nc(C)co3)c2=O)nc2c(C(=O)NC3CCC3)cnn12 [I-386]	
> 50000	< 100		CNc1cc(Nc2cccnc2OC)nc2c(C(=O)NC3CCC3O)cnn12 (stereo not shown) [I-390, N-(2-hydroxycyclobutyl)-5-((2-methoxypyridin-3-yl)amino)-7-(methylamino) pyrazolo[1,5-a]pyrimidine-3-carboxamide]	
> 50000	< 100		CNc1cc(Nc2cccnc2OC2CC2)nc2c(C(=O)NC3CCC3O)cnn12 (stereo not shown) [I-392, 5-((2-cyclopropoxypyridin-3-yl)amino)-N-(2-hydroxycyclobutyl)-7-(methylamino)pyrazolo[1,5-a]pyrimidine-3-carboxamide]	
> 12500	< 100		CNc1cc(Nc2cccn(C3CCC4(CC3)OCCO4)c2=O)nc2c(C(=O)NC3CC3)cnn12 [I-393]	
	< 100	> 12500	CNc1cc(Nc2cccnc2OC)nc2c(C(=O)N[C@H]3CC[C@@H]3O)cnn12 [I-395]	
> 50000	< 100		CNc1cc(Nc2cccnc2OC)nc2c(C(=O)N[C@@H]3CC[C@H]3O)cnn12 [I-396]	
> 50000	< 100		CNc1cc(Nc2cccnc2OC2CC2)nc2c(C(=O)N[C@H]3CC[C@@H]3O)cnn12 [I-397]	
> 12500	< 100		CNc1cc(Nc2cccnc2OC2CC2)nc2c(C(=O)N[C@@H]3CC[C@@H]3O)cnn12 [I-401]	
> 12500	100 to 500		CNc1cc(Nc2cccn(-c3cnn(CC4CCOCC4)c3)c2=O)nc2c(C(=O)NC3CC3)cnn12 [I-406]	
> 12500	< 100		CNc1cc(Nc2cccn(-c3cnn(CC4CCOCC4)c3)c2=O)nc2c(C(=O)N[C@H]3C[C@H]3F)cnn12 [I-407]	
> 12500	< 100		CCONC(=O)c1cnn2c(NC)cc(Nc3cccnc3OC)nc12 [I-409, N-ethoxy-5-((2-methoxypyridin-3-yl)amino)-7-(methylamino)pyrazolo[1,5-a]pyrimidine-3-carboxamide]	
> 12500	< 100		[2H]C([2H])([2H])Oc1ncccc1Nc1cc(NC)n2ncc(C(=O)N[C@@H]3CC[C@H]3O)c2n1 [I-410]	
> 50000	< 100		CNc1cc(Nc2cccn(C[C@@H]3CCCCO3)c2=O)nc2c(C(=O)NC3CC3)cnn12 [I-413]	
> 50000	< 100		CNc1cc(Nc2cccn(C3CCC4(CC3)OCCO4)c2=O)nc2c(C(=O)N[C@@H]3C[C@@H]3F)cnn12 [I-415, N-((1R,2S)-2-fluorocyclopropyl)-7-(methylamino)-5-((2-oxo-1-(1,4-dioxaspiro 14.51 decan-8-yl)-1,2-dihydropyridin-3-yl)amino)pyrazolo[1,5-a]pyrimidine-3-carboxamide]	
> 50000	< 100		CNc1cc(Nc2cccnc2OC)nc2c(C(=O)N[C@@H]3CCC[C@H]3O)cnn12 [I-423, N-((1R,2R)-2-hydroxycyclopentyl)-5-((2-methoxypyridin-3-yl)amino)-7-(methylamino)pyrazolo[1,5-a]pyrimidine-3-carboxamide]	

Structure (SMILES)	IC50 [1, 3] [nM]	IC50 [2] [nM]	IC50 ([1]; read-out: PBMC_GMCSF_pSTAT5 IC50, human PBMC, GM-CSF 5 ng/mL for 20 minutes, pSTAT5) [nM]	IC50 ([1]; Homo sapiens, PBMC, 20 min, read-out: PBMC_GMCSF_pSTAT5 IC50) [nM]
CNc1cc(Nc2cccnc2OC)nc2c(C(=O)NCC3(CO)CC3)cnn12 [I-425]		< 100		> 50000
